The compounds below were run against T1, GFRα1-RET (Homo sapiens, UniProt P56159) (assay: Elk1 reporter-gene (luciferase) assay in cells expressing GFRα1-RET). Conditions: MG87 murine fibroblasts stably transfected with PathDetect Elk-1, GFRα1 and RET, 6 concentrations, agonist/activator activity.
T1 construct: expressed in transfected cells; host or cells: MG87 murine fibroblasts, stably transfected
T1 sequence (P56159 25-429 limits assumed): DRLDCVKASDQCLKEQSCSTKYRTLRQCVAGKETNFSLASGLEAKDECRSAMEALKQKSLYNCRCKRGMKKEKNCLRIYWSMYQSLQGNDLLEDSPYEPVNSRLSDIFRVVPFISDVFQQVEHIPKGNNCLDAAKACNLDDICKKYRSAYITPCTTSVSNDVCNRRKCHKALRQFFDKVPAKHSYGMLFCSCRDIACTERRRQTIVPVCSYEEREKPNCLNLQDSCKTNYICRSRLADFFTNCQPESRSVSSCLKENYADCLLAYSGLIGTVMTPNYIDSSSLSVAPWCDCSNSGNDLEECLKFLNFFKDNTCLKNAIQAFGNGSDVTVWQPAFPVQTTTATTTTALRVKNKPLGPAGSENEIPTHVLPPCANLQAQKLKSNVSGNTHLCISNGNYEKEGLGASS
Assay type: cell-based
Method: For ECso determination, a dose-response test was performed using 6 concentrations of each tested compound. Dose-response curves were fitted using the sigmoidal dose-response (variable slope) analysis in GraphPad Prism program (Graph Pad Inc) and ECso of agonist/activator activity was calculated. Dose-response experiments were all performed in duplicate, two times independently.

**Q.** With CC(C)(O)c1ccc(S(=O)(=O)N2CCC(c3ccccc3)CC2)cc1N1[C@@H]2CC[C@H]1CN(C(=O)c1ccc(F)cc1Cl)C2 [compound 072, (2-chloro-4-fluoro-phenyl)-[(1S,5R)-8-[2-(1-hydroxy-1-methyl-ethyl)-5-[(4-phenyl-1-piperidyl)sulfonyl]phenyl]-3,8-diazabicyclo[3.2.1]octan-3-yl]methanone] as the compound, how does the EC50 read?
**A.** The EC50 was 1000 to 10000 nM.

**Q.** For CN(C)Cc1ccc(S(=O)(=O)N2CCC(c3ccccc3)CC2)cc1N1[C@@H]2CC[C@H]1CN(C(=O)c1ccc(F)cc1Cl)C2 [compound 073, (2-chloro-4-fluoro-phenyl)-[(1S,5R)-8-[2-[(dimethylamino)methyl]-5-[(4-phenyl-1-piperidyl)sulfonyl]phenyl]-3,8-diazabicyclo[3.2.1]octan-3-yl]methanone], which EC50 is on record?
**A.** The EC50 was 1000 to 10000 nM.

**Q.** How did the EC50 turn out when Cc1c(Cl)cc(S(=O)(=O)NC(C)(C)C)cc1N1[C@@H]2CC[C@H]1CN(C(=O)c1ccc(F)cc1Cl)C2 [compound 074, N-tert-butyl-3-chloro-5-[(1S,5R)-3-(2-chloro-4-fluoro-benzoyl)-3,8-diazabicyclo[3.2.1]octan-8-yl]-4-methyl-benzenesulfonamide] was run?
**A.** Its EC50 is less than 1000 nM.

**Q.** Which EC50 does the source give for CC(C)(C)NS(=O)(=O)c1cc(Cl)c(Cl)c(N2[C@@H]3CC[C@H]2CN(C(=O)c2ccc(F)cc2Cl)C3)c1 [compound 075, N-tert-butyl-3,4-dichloro-5-[(1S,5R)-3-(2-chloro-4-fluoro-benzoyl)-3,8-diazabicyclo[3.2.1]octan-8-yl]benzenesulfonamide] here?
**A.** The EC50 was less than 1000 nM.

**Q.** For O=C(c1ccc(F)cc1Cl)N1C[C@H]2CC[C@@H](C1)N2c1cc(S(=O)(=O)N2CCC(c3ccccc3)CC2)ccc1OCCO [compound 076], which EC50 is on record?
**A.** The EC50 was less than 1000 nM.

**Q.** Which EC50 does the source give for O=C(c1ccc(F)cc1Cl)N1C[C@H]2CC[C@@H](C1)N2c1cc(S(=O)(=O)N2CCC(CCc3ccccc3)CC2)ccc1OCCO [compound 077, (2-chloro-4-fluoro-phenyl)-[(1S,5R)-8-[2-(2-hydroxyethoxy)-5-[[4-(2-phenylethyl)-1-piperidyl]sulfonyl]phenyl]-3,8-diazabicyclo[3.2.1]octan-3-yl]methanone] here?
**A.** Its EC50 is less than 1000 nM.

**Q.** How did the EC50 turn out when O=C(c1ccc(F)cc1Cl)N1C[C@H]2CC[C@@H](C1)N2c1cc(S(=O)(=O)N2CCN(CCc3ccc(Cl)cc3)CC2)ccc1OCCO [compound 078, (2-chloro-4-fluoro-phenyl)-[(1S,5R)-8-[5-[4-[2-(4-chlorophenyl)ethyl]piperazin-1-yl]sulfonyl-2-(2-hydroxyethoxy)phenyl]-3,8-diazabicyclo[3.2.1]octan-3-yl]methanone] was run?
**A.** Its EC50 is less than 1000 nM.

**Q.** CCCN(C)S(=O)(=O)c1ccc(C2CC2)c(N2[C@@H]3CC[C@H]2CN(C(=O)c2ccc(F)cc2Cl)C3)c1 [compound 079] was tested. Which EC50 did it give?
**A.** The EC50 was less than 1000 nM.

**Q.** With O=C(c1ccc(F)cc1Cl)N1C[C@H]2CC[C@@H](C1)N2c1cc(S(=O)(=O)N2CCC(c3ccccc3)CC2)ccc1C1CC1 [compound 080, (2-chloro-4-fluoro-phenyl)-[(1S,5R)-8-[2-cyclopropyl-5-[(4-phenyl-1-piperidyl)sulfonyl]phenyl]-3,8-diazabicyclo[3.2.1]octan-3-yl]methanone] as the compound, how does the EC50 read?
**A.** The EC50 was less than 1000 nM.

**Q.** How did the EC50 turn out when O=C(c1ccc(F)cc1Cl)N1C[C@H]2CC[C@@H](C1)N2c1cc(S(=O)(=O)N2CCC(c3ccccc3)CC2)ccc1-c1c[nH]cn1 [compound 081] was run?
**A.** The EC50 was less than 1000 nM.

**Q.** For Cn1cnc(-c2ccc(S(=O)(=O)N3CCC(c4ccccc4)CC3)cc2N2[C@@H]3CC[C@H]2CN(C(=O)c2ccc(F)cc2Cl)C3)c1 [compound 082, (2-chloro-4-fluoro-phenyl)-[(1S,5R)-8-[2-(1-methylimidazol-4-yl)-5-[(4-phenyl-1-piperidyl)sulfonyl]phenyl]-3,8-diazabicyclo[3.2.1]octan-3-yl]methanone], which EC50 is on record?
**A.** Its EC50 is 1000 to 10000 nM.

**Q.** For O=C(c1ccc(F)cc1Cl)N1C[C@H]2CC[C@@H](C1)N2c1cc(S(=O)(=O)N2CCC(c3ccccc3)CC2)cc(F)c1O [compound 083, (2-chloro-4-fluoro-phenyl)-[(1S,5R)-8-[3-fluoro-2-hydroxy-5-[(4-phenyl-1-piperidyl)sulfonyl]phenyl]-3,8-diazabicyclo[3.2.1]octan-3-yl]methanone], which EC50 is on record?
**A.** The EC50 was less than 1000 nM.

**Q.** O=C(c1ccc(F)cc1Cl)N1C[C@H]2CC[C@@H](C1)N2c1cc(S(=O)(=O)N2CCC(c3ccc(F)cc3)CC2)cc(F)c1O [compound 084, (2-chloro-4-fluoro-phenyl)-[(1S,5R)-8-[3-fluoro-5-[[4-(4-fluorophenyl)-1-piperidyl]sulfonyl]-2-hydroxy-phenyl]-3,8-diazabicyclo[3.2.1]octan-3-yl]methanone] was tested. Which EC50 did it give?
**A.** The EC50 was less than 1000 nM.

**Q.** For CC(C)(C)NS(=O)(=O)c1cc(F)c(O)c(N2[C@@H]3CC[C@H]2CN(C(=O)c2ccc(F)cc2Cl)C3)c1 [compound 085, N-tert-butyl-3-[(1S,5R)-3-(2-chloro-4-fluoro-benzoyl)-3,8-diazabicyclo[3.2.1]octan-8-yl]-5-fluoro-4-hydroxy-benzenesulfonamide], which EC50 is on record?
**A.** Its EC50 is less than 1000 nM.

**Q.** How did the EC50 turn out when CN(CC1CC1)S(=O)(=O)c1cc(F)c(O)c(N2[C@@H]3CC[C@H]2CN(C(=O)c2ccc(F)cc2Cl)C3)c1 [compound 086, 3-[(1S,5R)-3-(2-chloro-4-fluoro-benzoyl)-3,8-diazabicyclo[3.2.1]octan-8-yl]-N-(cyclopropylmethyl)-5-fluoro-4-hydroxy-N-methyl-benzenesulfonamide] was run?
**A.** Its EC50 is less than 1000 nM.

**Q.** For O=C(c1ccc(F)cc1Cl)N1C[C@H]2CC[C@@H](C1)N2c1cc(S(=O)(=O)N2CCC(c3ccccc3)CC2)cc(C(F)(F)F)c1O [compound 087], which EC50 is on record?
**A.** Its EC50 is less than 1000 nM.

**Q.** O=C(c1ccc(F)cc1Cl)N1C[C@H]2CC[C@@H](C1)N2c1cc(S(=O)(=O)N2CCC(c3ccc(F)cc3)CC2)cc(C(F)(F)F)c1O [compound 088, (2-chloro-4-fluoro-phenyl)-[(1S,5R)-8-[5-[[4-(4-fluorophenyl)-1-piperidyl]sulfonyl]-2-hydroxy-3-(trifluoromethyl)phenyl]-3,8-diazabicyclo[3.2.1]octan-3-yl]methanone] was tested. Which EC50 did it give?
**A.** Its EC50 is less than 1000 nM.

**Q.** CC(C)(C)NS(=O)(=O)c1cc(N2[C@@H]3CC[C@H]2CN(C(=O)c2ccc(F)cc2Cl)C3)c(O)c(C(F)(F)F)c1 [compound 089] was tested. Which EC50 did it give?
**A.** The EC50 was 1000 to 10000 nM.

**Q.** How did the EC50 turn out when Cc1cc(S(=O)(=O)N2CCC(c3ccccc3)CC2)cc(N2[C@@H]3CC[C@H]2CN(C(=O)c2ccc(F)cc2Cl)C3)c1O [compound 090, (2-chloro-4-fluoro-phenyl)-[(1S,5R)-8-[2-hydroxy-3-methyl-5-[(4-phenyl-1-piperidyl)sulfonyl]phenyl]-3,8-diazabicyclo[3.2.1]octan-3-yl]methanone] was run?
**A.** The EC50 was less than 1000 nM.

**Q.** How did the EC50 turn out when Cc1cc(S(=O)(=O)N2CCC(c3ccc(F)cc3)CC2)cc(N2[C@@H]3CC[C@H]2CN(C(=O)c2ccc(F)cc2Cl)C3)c1O [compound 091, (2-chloro-4-fluoro-phenyl)-[(1S,5R)-8-[5-[[4-(4-fluorophenyl)-1-piperidyl]sulfonyl]-2-hydroxy-3-methyl-phenyl]-3,8-diazabicyclo[3.2.1]octan-3-yl]methanone] was run?
**A.** Its EC50 is less than 1000 nM.

**Q.** How did the EC50 turn out when Cc1cc(S(=O)(=O)N(C)CC2CC2)cc(N2[C@@H]3CC[C@H]2CN(C(=O)c2ccc(F)cc2Cl)C3)c1O [compound 092, 3-[(1S,5R)-3-(2-chloro-4-fluoro-benzoyl)-3,8-diazabicyclo[3.2.1]octan-8-yl]-N-(cyclopropylmethyl)-4-hydroxy-N,5-dimethyl-benzenesulfonamide] was run?
**A.** The EC50 was less than 1000 nM.

**Q.** For Cc1cc(S(=O)(=O)NC(C)(C)C)cc(N2[C@@H]3CC[C@H]2CN(C(=O)c2ccc(F)cc2Cl)C3)c1O [compound 093], which EC50 is on record?
**A.** Its EC50 is less than 1000 nM.

**Q.** Which EC50 does the source give for CCc1cc(S(=O)(=O)N2CCC(c3ccccc3)CC2)cc(N2[C@@H]3CC[C@H]2CN(C(=O)c2ccc(F)cc2Cl)C3)c1O [compound 094, (2-chloro-4-fluoro-phenyl)-[(1S,5R)-8-[3-ethyl-2-hydroxy-5-[(4-phenyl-1-piperidyl)sulfonyl]phenyl]-3,8-diazabicyclo[3.2.1]octan-3-yl]methanone] here?
**A.** Its EC50 is less than 1000 nM.

**Q.** Which EC50 does the source give for CC(C)(C)NS(=O)(=O)c1cc(Cl)c(O)c(N2[C@@H]3CC[C@H]2CN(C(=O)c2ccc(F)cc2Cl)C3)c1 [compound 095, N-tert-butyl-3-chloro-5-[(1S,5R)-3-(2-chloro-4-fluoro-benzoyl)-3,8-diazabicyclo[3.2.1]octan-8-yl]-4-hydroxy-benzenesulfonamide] here?
**A.** The EC50 was less than 1000 nM.

**Q.** With CN(CC1CC1)S(=O)(=O)c1cc(Cl)c(O)c(N2[C@@H]3CC[C@H]2CN(C(=O)c2ccc(F)cc2Cl)C3)c1 [compound 096, 3-chloro-5-[(1S,5R)-3-(2-chloro-4-fluoro-benzoyl)-3,8-diazabicyclo[3.2.1]octan-8-yl]-N-(cyclopropylmethyl)-4-hydroxy-N-methyl-benzenesulfonamide] as the compound, how does the EC50 read?
**A.** The EC50 was less than 1000 nM.

**Q.** Which EC50 does the source give for O=C(c1ccc(F)cc1Cl)N1C[C@H]2CC[C@@H](C1)N2c1cc(S(=O)(=O)N2CCC(F)CC2)cc(Cl)c1O [compound 097, (2-chloro-4-fluoro-phenyl)-[(1S,5R)-8-[3-chloro-5-[(4-fluoro-1-piperidyl)sulfonyl]-2-hydroxy-phenyl]-3,8-diazabicyclo[3.2.1]octan-3-yl]methanone] here?
**A.** The EC50 was less than 1000 nM.

**Q.** How did the EC50 turn out when O=C(c1ccc(F)cc1Cl)N1C[C@H]2CC[C@@H](C1)N2c1cc(S(=O)(=O)N2CCC(c3ccccc3)CC2)cc(Cl)c1O [compound 098] was run?
**A.** The EC50 was less than 1000 nM.
